In patent publication US7998963B2, “Arylpiperazine derivatives and uses thereof” (Roche Palo Alto LLC, priority 2008, dated 2011):

Tests used:
[1] = target: T1, human norepinephrine transporter (hNET) (Homo sapiens, UniProt P23975); test: hNET scintillation proximity assay (SPA), competition with [3H]-Nisoxetine; type: binding; conditions: membranes of HEK-293 cells expressing recombinant hNET, Ki by Cheng-Prusoff
T1 construct: expressed in transfected cells; host or cells: HEK-293 (Clone: HEK-hNET #2)
Procedure: Screening for Compounds Active at Human Norepinephrine Transporter (HNET) Using a Scintillation Proximity Assay (SPA)
This assay was used to determine the affinity of ligands for the hNET transporter by competition with [^3H]-Nisoxetine. As in the hSERT assay of the above example, receptor-containing membranes were pre-coupled to the SPA beads and the binding of the appropriate radioligand to the transporter was measured. The light emission was proportional to the amount of bound radioligand, with unbound radioligand producing no signal. […]
Cell membranes were prepared using a membrane preparation buffer of 50 mM TRIS (pH 7.4). […] After a second centrifugation, the pellet was re-homogenized and brought to a final volume determined during the assay. […]
^3[H] […] The mixtures were allowed to stand at room temperature for one hour, and were then counted on a Packard TopCount LCS, a generic SPA counting protocol settings (Energy Range: Low, Efficiency Mode: Normal, Region A: 1.50-35.00, Region B: 1.50-256.00, Count Time (min.): 0.40, Background Subtract: none, Half-Life Correction: no, Quench Indicator: tSIS, Platemap blank subtraction: No, Cross talk reduction: Off).
(§1) The % inhibition was calculated for each compound tested [(Compound CPM at maximum concentration-Non-Specific CPM)/Total CPM*100]. […]

[2] = target: T2, human dopamine transporter (hDAT) (Homo sapiens, UniProt Q01959); test: hDAT scintillation proximity assay (SPA), competition with [3H]-Vanoxerine; type: binding; conditions: HEK-293 cells expressing recombinant hDAT, Ki by Cheng-Prusoff
T2 construct: expressed in transfected cells; host or cells: HEK-293
Procedure: Screening for Compounds Active at Human Dopamine Transporter Using a Scintillation Proximity Assay (SPA)
This assay was used to determine the affinity of ligands for the dopamine transporter by competition with [^3H]-Vanoxerine.
HEK-293 cells (Tatsumi et al., Eur. J. Pharmacol. 1997, 30, 249-258) stably expressing recombinant hDAT were maintained with media (DMEM hi glucose with 10% FBS, 300 μg/ml G418 and 2 mM L-Glutamine) and incubated at 37° C. with 5% CO2. Cells were plated four hours prior to experiment by placing approximately 30,000 cells per well (in PBS) on white, opaque Cell-Tak coated 96 well plates. Extra buffer was apriated from the cell plates using an ELx405 plate washer.
^3[H] vanoxerine (GBR 12909) radioligand, specific activity approximately 59 Ci/mmol, stock concentration, 400 nM, and 50 mM Tris-HCl, 300 mM NaCl, (pH 7.4) buffers were used for Scintillation Proximity Assay IC50/Ki determination. […]
as §1
[formula] where max=total binding, min=non specific binding, x=concentration (M) of the tested compound and n=Hill slope. The inhibition dissociation constant (Ki) of each compound was determined according to the method of Cheng-Prusoff and then converted into negative logarithm (pKi) of the Ki.

T2 sequence (Q01959 whole entry): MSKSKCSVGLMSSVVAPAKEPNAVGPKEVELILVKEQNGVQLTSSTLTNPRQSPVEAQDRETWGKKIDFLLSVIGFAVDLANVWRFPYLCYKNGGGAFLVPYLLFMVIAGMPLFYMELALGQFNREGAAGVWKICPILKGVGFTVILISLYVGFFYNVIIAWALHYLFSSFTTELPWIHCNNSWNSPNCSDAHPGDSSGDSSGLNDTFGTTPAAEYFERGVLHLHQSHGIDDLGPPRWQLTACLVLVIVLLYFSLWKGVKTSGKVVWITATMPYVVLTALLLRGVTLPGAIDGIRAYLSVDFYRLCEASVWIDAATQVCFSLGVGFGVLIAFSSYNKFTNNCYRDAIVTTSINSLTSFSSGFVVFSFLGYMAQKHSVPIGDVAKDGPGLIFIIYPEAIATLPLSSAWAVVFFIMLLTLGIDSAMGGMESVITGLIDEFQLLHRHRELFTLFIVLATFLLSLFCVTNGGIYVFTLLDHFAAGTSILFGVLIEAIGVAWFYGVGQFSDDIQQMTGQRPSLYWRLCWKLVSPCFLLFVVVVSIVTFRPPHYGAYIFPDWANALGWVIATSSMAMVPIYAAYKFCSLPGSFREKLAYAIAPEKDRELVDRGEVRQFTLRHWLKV
T1 sequence (P23975 whole entry): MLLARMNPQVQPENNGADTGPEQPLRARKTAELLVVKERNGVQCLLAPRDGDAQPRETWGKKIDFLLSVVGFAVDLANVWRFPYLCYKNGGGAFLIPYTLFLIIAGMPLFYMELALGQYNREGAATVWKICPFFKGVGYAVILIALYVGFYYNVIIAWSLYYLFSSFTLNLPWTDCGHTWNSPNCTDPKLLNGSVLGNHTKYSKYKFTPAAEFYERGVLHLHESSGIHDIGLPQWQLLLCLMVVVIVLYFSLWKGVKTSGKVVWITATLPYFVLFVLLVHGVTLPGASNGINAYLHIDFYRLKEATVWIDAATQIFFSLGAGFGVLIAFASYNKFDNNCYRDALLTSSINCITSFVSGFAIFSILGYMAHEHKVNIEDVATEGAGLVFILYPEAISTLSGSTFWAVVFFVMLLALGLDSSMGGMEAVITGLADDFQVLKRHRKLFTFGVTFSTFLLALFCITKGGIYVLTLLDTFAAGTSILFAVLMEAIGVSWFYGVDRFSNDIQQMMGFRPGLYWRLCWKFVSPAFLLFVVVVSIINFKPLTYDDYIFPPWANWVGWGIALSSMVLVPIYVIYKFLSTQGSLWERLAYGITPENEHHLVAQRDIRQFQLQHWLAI

SMILES	Ki [1] [nM]	Ki [2] [nM]
c1ccc(OCC2CNCCN2c2ccc3[nH]ncc3c2)cc1 (centres unmarked) [5-(2-Phenoxymethyl-piperazin-1-yl)-1H-indazole]	~6.31	–
c1cc2[nH]ncc2cc1N1CCNC[C@H]1CCC1CC1 [5-[(R)-2-(2-Cyclopropyl-ethyl)-piperazin-1-yl]-1H-indazole]	–	~12.6
